From the supplement of paper PMC10307832

Legend:
Assay in all cases: relative viability (nuclei count vs DMSO), 5 days (fraction); higher = more cells survive
[1] = compound: C1/C(=C\C2=CC=CS2)/C(=O)/C(=C/C3=CC=CS3)/C1 + CC(C)C[C@H](NC(=O)[C@H](Cc1ccccc1)NC(=O)c1cnccn1)B(O)O [Bortezomib] (partner 0.002 µM)
In short: (§1)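 Relative viability was taken as the ratio of nuclei in treated wells to nuclei in vehicle wells. Lung cancer cell lines in 1536-well plates received compounds by pin tool one day after seeding, either one drug alone or a fixed anchor-drug dose plus five library-drug doses (not always all listed) in √10 steps. Nuclei were counted on 4× images after 5 days of treatment, and values are medians of duplicate plates.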

TPCA-1 + Dasatinib = compound: C1=CC(=CC=C1C2=CC(=C(S2)NC(=O)N)C(=O)N)F [TPCA-1] + Cc1nc(Nc2ncc(C(=O)Nc3c(C)cccc3Cl)s2)cc(N2CCN(CCO)CC2)n1 [Dasatinib] (partner 0.075 µM)
In short: as §1

TPCA-1 + Crizotinib = compound: C1=CC(=CC=C1C2=CC(=C(S2)NC(=O)N)C(=O)N)F [TPCA-1] + C[C@@H](Oc1cc(-c2cnn(C3CCNCC3)c2)cnc1N)c1c(Cl)ccc(F)c1Cl [Crizotinib] (partner 1 µM)
In short: as §1

TPCA-1 + Bortezomib = compound: C1=CC(=CC=C1C2=CC(=C(S2)NC(=O)N)C(=O)N)F [TPCA-1] + CC(C)C[C@H](NC(=O)[C@H](Cc1ccccc1)NC(=O)c1cnccn1)B(O)O [Bortezomib] (partner 0.002 µM)
In short: as §1

| Cell Line | relative viability ([1]; first compound 0.2 µM) | relative viability ([1]; first compound 0.6325 µM) | relative viability ([1]; first compound 2 µM) | relative viability ([1]; first compound 6.325 µM) | relative viability ([1]; first compound 20 µM) | relative viability (TPCA-1 + Dasatinib; first compound 0.04 µM) | relative viability (TPCA-1 + Dasatinib; first compound 0.1265 µM) | relative viability (TPCA-1 + Dasatinib; first compound 0.4 µM) | relative viability (TPCA-1 + Dasatinib; first compound 1.265 µM) | relative viability (TPCA-1 + Dasatinib; first compound 4 µM) | relative viability (TPCA-1 + Crizotinib; first compound 0.04 µM) | relative viability (TPCA-1 + Crizotinib; first compound 0.1265 µM) | relative viability (TPCA-1 + Crizotinib; first compound 0.4 µM) | relative viability (TPCA-1 + Crizotinib; first compound 1.265 µM) | relative viability (TPCA-1 + Crizotinib; first compound 4 µM) | relative viability (TPCA-1 + Bortezomib; first compound 0.04 µM) | relative viability (TPCA-1 + Bortezomib; first compound 0.1265 µM) | relative viability (TPCA-1 + Bortezomib; first compound 0.4 µM) | relative viability (TPCA-1 + Bortezomib; first compound 1.265 µM) | relative viability (TPCA-1 + Bortezomib; first compound 4 µM) |
| --- | --- | --- | --- | --- | --- | --- | --- | --- | --- | --- | --- | --- | --- | --- | --- | --- | --- | --- | --- | --- |
| NCI-H2405 | 1.03 | 0.944 | 1.01 | 0.631 | 1 | 0.226 | 0.216 | 0.22 | 0.207 | 0.208 | 0.908 | 0.773 | 0.797 | 0.547 | 0.905 | 0.988 | 0.843 | 1.02 | 0.92 | 0.289 |
| NCI-H2087 | 0.922 | 0.742 | 0.963 | 0.512 | 0.73 | 1.15 | 0.658 | 0.816 | 0.745 | 0.397 | 0.801 | 0.828 | 0.781 | 0.867 | 0.283 | 0.777 | 0.709 | 0.666 | 0.815 | 0.455 |
| NCI-H460 | 1.12 | 1.26 | 1.17 |  | 1.09 | 0.707 | 0.421 | 0.496 | 0.465 | 0.361 | 0.911 | 0.919 | 0.889 | 0.883 | 0.298 | 1.11 | 0.877 | 1.09 | 0.839 | 0.493 |
| LOU-NH91 | 0.472 | 0.528 | 0.459 | 0.327 | 0.493 | 0.558 | 0.558 | 0.38 | 0.43 | 0.52 | 0.724 | 0.736 | 0.726 | 0.731 | 0.656 | 0.508 | 0.514 | 0.502 | 0.523 | 0.574 |
| NCI-H1651 | 0.876 | 0.995 | 0.916 | 0.914 | 0.925 | 0.444 | 0.382 | 0.402 | 0.395 | 0.383 | 0.853 | 0.841 | 0.892 | 0.812 | 0.747 | 0.909 | 0.927 | 0.917 | 0.891 | 0.649 |
| NCI-H441 | 0.617 | 0.516 | 0.351 | 0.447 | 0.482 | 0.882 | 0.559 | 0.688 | 0.245 | 0.274 | 0.894 | 0.646 | 0.618 | 0.452 | 0.379 | 0.63 | 0.32 | 0.42 | 0.266 | 0.404 |
